The assay addresses T1, recombinant aminopeptidase A (UniProt P16406).
T1 sequence (P16406 1-945): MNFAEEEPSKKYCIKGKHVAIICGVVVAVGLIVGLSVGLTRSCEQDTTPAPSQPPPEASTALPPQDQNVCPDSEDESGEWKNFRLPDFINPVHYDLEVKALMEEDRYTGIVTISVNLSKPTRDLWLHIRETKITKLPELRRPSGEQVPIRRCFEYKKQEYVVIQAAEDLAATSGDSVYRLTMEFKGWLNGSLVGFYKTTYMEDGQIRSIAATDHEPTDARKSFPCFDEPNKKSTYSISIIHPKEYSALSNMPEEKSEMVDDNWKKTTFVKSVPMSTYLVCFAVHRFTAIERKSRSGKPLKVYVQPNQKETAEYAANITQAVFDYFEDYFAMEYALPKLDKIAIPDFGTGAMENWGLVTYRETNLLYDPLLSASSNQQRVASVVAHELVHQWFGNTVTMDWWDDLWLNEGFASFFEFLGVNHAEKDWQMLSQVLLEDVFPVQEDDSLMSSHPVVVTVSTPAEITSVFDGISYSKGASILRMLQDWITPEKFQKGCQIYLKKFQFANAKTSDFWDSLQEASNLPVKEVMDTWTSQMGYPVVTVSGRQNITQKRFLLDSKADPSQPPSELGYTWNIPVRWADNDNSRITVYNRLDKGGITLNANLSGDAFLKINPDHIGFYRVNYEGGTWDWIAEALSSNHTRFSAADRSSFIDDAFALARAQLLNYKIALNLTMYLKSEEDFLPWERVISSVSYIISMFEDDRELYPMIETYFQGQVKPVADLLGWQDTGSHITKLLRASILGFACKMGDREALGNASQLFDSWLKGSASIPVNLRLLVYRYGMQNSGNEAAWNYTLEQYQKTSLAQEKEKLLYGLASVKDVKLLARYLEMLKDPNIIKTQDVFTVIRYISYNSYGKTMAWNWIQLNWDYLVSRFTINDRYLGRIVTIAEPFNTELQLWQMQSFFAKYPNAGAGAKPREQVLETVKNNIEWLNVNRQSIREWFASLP
Description: Determination of the inhibition constants with respect to APA (GluβNa hydrolysis, microplate assay). Type of assay: biochemical. Particulars: for Ki: recombinant APA, 200 μM GluβNa, pH 7.4 Tris-HCl, 4 mM CaCl2, 37° C. As to the method: The compounds 5 were tested, in vitro, on recombinant aminopeptidase A in order to determine their affinity for APA.
The assaying of APA activity is based on the protocol of Goldberg, adapted to the microplate assay scale (Pro Bind® 3915) (Chauvel et al., J. Med. Chem., 1994, 37, 1339-1346).
In vitro, in the presence of calcium ions, APA hydrolyzes α-L-glutamyl-β-naphthylamide (gluβNa) to glutamate and β-naphthylamine (βNa). A diazotization reaction in an acidic medium makes it possible to visualize the β-naphthylamine by formation of a violet-colored complex: spectrophotometric measurement then makes it possible to determine the amount of complex formed and, by reference to a standard curve produced with increasing concentrations of β-naphthylamine, to deduce therefrom the enzymatic activity of the sample.
The GluβNa substrate and the β-naphthylamine (Bachem) are solubilized in dimethyl sulfoxide and 0.1N HCl, respectively, and conserved at −20° C. at a concentration of 10^−2M. The diazotization reaction is carried out in the presence of sodium nitrite (87 mM), of ammonium sulfamate (130 mM) and of N-(1-naphthyl)ethylenediamine dihydrochloride (23 mM).
The reaction takes place at pH 7.4 in 50 mM Tris-HCl buffer, in the presence of calcium (4 mM CaCl2); the sample to be assayed is incubated at 37° C. in the presence of a substrate (200 μM GluβNa) and in the presence or absence of various concentrations of the inhibitor to be tested, in a final volume of 100 μl. The reaction is stopped by the addition of 10 μl of 3N HCl. A standard curve for β-naphthylamine in an acidic medium (addition of 10 μl of 0.1N HCl) is produced in parallel.
The following are added to each well:
25 μl of sodium nitrite (mix, wait 5 min at ambient temperature),
50 μl of ammonium sulfamate (stir, wait 5 min at ambient temperature), then
25 μl of 23 mM N-(1-naphthyl)ethylenediamine dihydrochloride (mix, wait for the violet color to stabilize for approximately 30 min at 37° C.).
The absorbance is subsequently measured at 540 nm.
The compound EC 33 ((S)-3-amino-4-mercaptobutylsulfonic acid) described in application WO 99/36066), a monomer of the compound RB 150 (4,4′-dithiobis-3-aminobutane-1-sulfonic acid) described in application WO 2004/007441, was used as a reference compound.

The Ki is the dissociation constant of the complex between target and ligand, obtained from inhibition or displacement. Take `CC(S)C(N)CCS(=O)(=O)O` (stereo not shown) [Compound 5a, 3-Amino-4-mercaptopentane-1-sulfonic acid]: the Ki was greater than 100000 nM.

In the case of `NC(CCS(=O)(=O)O)C(S)c1ccccc1` (stereo not shown) [Compound 5b, 3-Amino-4-mercapto-4-phenylbutane-1-sulfonic acid], the Ki was 8000 nM.

`CC(C)CC(S)C(N)CCS(=O)(=O)O` (stereo not shown) [Compound 5c, 3-Amino-4-mercapto-6-methylheptane-1-sulfonic acid]: the Ki came to 4000 nM. On to `NC(CCS(=O)(=O)O)C(S)Cc1ccccc1` (stereo not shown) [Compound 5d, 3-Amino-4-mercapto-5-phenylpentane-1-sulfonic acid], for which the Ki amounted to 380 nM. Further, the “inhibitory activity compared with the reference compound (EC 33)” value (relative to EC 33) is reported as “of the same order as or greater than that of the reference compound”. On to `N[C@H](CCS(=O)(=O)O)[C@@H](S)CCc1ccccc1` [Compound 5e1, (3R,4S)-3-Amino-4-mercapto-6-phenylhexane-1-sulfonic acid], for which the Ki was found to be 1920 nM.

In the case of `N[C@@H](CCS(=O)(=O)O)[C@@H](S)CCc1ccccc1` [Compound 5e2, (3S,4S)-3-Amino-4-mercapto-6-phenylhexane-1-sulfonic acid], the Ki is 30 nM. Moreover, the “APA-inhibiting activity greater than that of the reference compound (EC 33) by a factor” value (relative to EC 33) was 10.

On to `N[C@@H](CCS(=O)(=O)O)[C@H](S)CCc1ccccc1` [Compound 5e3, (3S,4R)-3-Amino-4-mercapto-6-phenylhexane-1-sulfonic acid], for which the Ki was determined as 1040 nM. Still for that read-out and setting: with `N[C@H](CCS(=O)(=O)O)[C@H](S)CCc1ccccc1` [Compound 5e4, (3R,4R)-3-Amino-4-mercapto-6-phenylhexane-1-sulfonic acid] the figure was 840 nM. Take `NC(CCS(=O)(=O)O)C(S)CCc1ccccc1` (stereo not shown) [Compound 5e, 3-Amino-4-mercapto-6-phenylhexane-1-sulfonic acid]: the Ki worked out at 80 nM. Besides, the “inhibitory activity compared with the reference compound (EC 33)” value (relative to EC 33) was “of the same order as or greater than that of the reference compound”.

As to `COc1ccc(CCC(S)C(N)CCS(=O)(=O)O)cc1` (stereo not shown) [Compound 5f, 3-Amino-4-mercapto-6-(4-methoxyphenyl)hexane-1-sulfonic acid], the Ki came to 92 nM. Moreover, the “inhibitory activity compared with the reference compound (EC 33)” value (relative to EC 33) is given as “of the same order as or greater than that of the reference compound”. As for `COc1ccccc1CCC(S)C(N)CCS(=O)(=O)O` (stereo not shown) [Compound 5g, 3-Amino-4-mercapto-6-(2-methoxyphenyl)hexane-1-sulfonic acid], the Ki is 96 nM. Also, the “inhibitory activity compared with the reference compound (EC 33)” value (relative to EC 33) is on record as “of the same order as or greater than that of the reference compound”.

Consider `NC(CCS(=O)(=O)O)C(S)CCc1ccc(Br)cc1` (stereo not shown) [Compound 5h, 3-Amino-4-mercapto-6-(4-bromophenyl)hexane-1-sulfonic acid], for which the Ki came out at 110 nM. In addition, for the setting “relative to EC 33”, the “inhibitory activity compared with the reference compound (EC 33)” value was “of the same order as or greater than that of the reference compound”. Take `N[C@H](CS)CCS(=O)(=O)O` [EC 33, (S)-3-amino-4-mercaptobutylsulfonic acid, reference compound]: the Ki is 304 nM.

Values taken from patent US7582797B2, “Derivatives of 4,4′-dithiobis-(3-aminobutane-1-sulfonates) and compositions comprising the same” (Institute National de la Sante et de la Recherche Medicale …, priority 2003, dated 2009).
